Measured values from patent US20050058658A1, “Compositions and methods for immunotherapy of human immunodeficiency virus (HIV)” (priority 2003, published 2005).

Assays:
Mouse sarcoma 180 cells = format: cell-based; conditions: for Enhancement of NK-CMC compared to BEX: same conditions as BEX; for NK-CMC Activity: wide range of concentrations, in the presence and absence of IL-2 (125 U/ml)
Protocol: In one embodiment, a NK cell assay is used to assess ARP-induced cytotoxic activity of NK-like cells. Briefly, by way of example but not limitation, a NK cell assay can be carried out as follows: large granular lymphocytes (LGLs) are co-cultured with tumor cells at various ratios (effector to target ratio) for four days at 37° C., 5% CO2. […] The culture is terminated at the end of day 4 and vitally stained using a MTT cell viability quantification assay (see Mossman, T. J. Immunol. Methods 1983, 65:55; and Sigma Chemical MTT (M5655) product application note). Culture media is aspirated and the remaining cells are washed and replaced with DMEM/F12 plus FCS, containing MTT. The cells are further incubated for 4-5 hours at 37° C. Absorbance is measured with the aid of a plate reader. Decreased absorbance indicated a decrease in the number of viable cells per well (i.e., cytotoxicity). Absorbance is measured again after the MTT is solubilized by replacement of the medium with 2-propanol containing HCl, which gives a uniform color throughout the well. NK-inducing activity is calculated relative to negative (PBS/BSA) and positive (internal standard) controls.
Spleens (10-15 per experiment) were aseptically removed from male Balb/C mice 6-10 weeks of age. Splenocytes were “squeezed” out of spleens using 2 sterile glass microscope slides. Cells were collected in approximately 10 ml of DMEM/F12 containing 10% fetal calf serum (FCS) and gentamicin (50 μg/ml). Single cell suspensions were generated by passing collected cells through a 70 μm nylon mesh screen. After washing the cell pellet once with PBS (centrifuged at 675×g for 5 min), red blood cells were lysed by brief hypotonic shock (i.e. exposure to sterile distilled, deionized water, followed immediately with appropriate volumes of 10×PBS to return to isotonicity). Remaining cells were centrifuged and resuspended in DMEM/F12+10% FCS and transferred to 75 cm^2 flasks each containing 25 mls DMEM/F12+10% FCS (cells from 5 spleens per flask). The cells were incubated for 60 min. at 37° C. to selectively remove readily adherent cells (mainly fibroblasts and macrophages). After the incubation, the flasks were gently shaken and the non-adherent cells were removed, pelleted by centrifugation, and resuspended in DMEM/F12 (no supplements) (1.0 mL/10^8 cells). A 1.0 mL volume of these cell suspensions were carefully layered onto a 70%/60%/40% (2 mL/4 mL/4 mL) Percoll™ gradients in 15 ml centrifuge tubes and centrifuged for 30 min at 675×G. The cells which sediment at the 40/60 interface represent primarily large granular lymphocytes (LGLs), enriched with NK cells. These cells were carefully removed with a pasteur pipet, centrifuged, washed once with PBS and resuspended in approximately 5 mL DMEM/F12 supplemented with gentamicin (50 μg/mL) and 10% fetal calf serum. Cell counts and appropriate dilutions of LGL cells were made with these cells, as described below. For convenience this LGL cell preparation is interchangeably referred to as NK cells.
Mouse sarcoma 180 cells were seeded into 96 well plates at a density of 5×10^3 cells per well in 100 μl DMEM/F12, supplemented with 10% FCS and gentamicin (50 μg/mL). […] NK cells were added in 100 μL of supplemented DMEM/F12 at designated densities: 0 NK cells/well; 5×10^4 NK cells/well (1:10 target/effector ratio); 1.25×10^5 NK cells/well (1:25 target/effector ratio); 2.5×10^5 NK cells/well (1:50 target/effector ratio); and, 5×10^5 NK cells/well (1:100 target/effector ratio). (Note: routinely, only the 1:50 and 1:100 ratios were used for screening purposes. IL2 was added as a media supplement with final concentration of 125 U/mL.). Co-cultures were incubated for 4 days at 37° C., 5% CO2, and terminated and vitally stained using a MTT cell viability quantification assay (see Mossman, T. J. Immunol. Methods 65:55 (1983); and Sigma Chemical MTT (M5655) product application note). […]

[1] = test system: freshly isolated dendritic cells (CD11c+ splenocytes); assay: Dendritic cell (DC) assay: IL-12 release; format: cell-based, BALB/c mice; conditions: tested for synergism and inhibition
From the text: In a preferred embodiment, dendritic cell (DC) assay is used to follow interleukin-12 (IL-12) release from freshly isolated dendritic cells as an index of DC activation (see section 13). […] Briefly, by way of example but not limitation, a DC assay can be carried out as follows: freshly isolated dendritic cells (CD11c^+ splenocytes, e.g., isolated from the spleens of BALB/c mice within ten hours of assaying the activity) are suspended at a density of 0.5×10^6 cells per mL in cytokine supplemented culture media (GM-CSF, 1.0 ng/ml; IL-4, 1.0 ng/ml; IFNg, 3 ng/ml; anti mouse CD40; 0.5 mg/ml). […] Mouse IL-12 release from the dendritic cells (CD11c^+ splenocytes) is then measured using ELISA.
DCs were isolated from the spleens of male BALB/c mice 8-12 weeks of age (Harlan Bioproducts for Science, Indianapolis, Ind.), using the magnetic assisted cell separation (MACS) system purchased from Miltenyi Biotech. In summary: Spleens were aseptically removed from mice and placed into a petri dish containing 5 mL holding media (DMEM/F12 supplemented with 10% FCS and antibiotics). Each spleen was then injected with ˜0.5 mls collagenase D solution (1 mg/mL in 10 mM Hepes-NaOH, pH 7.4, 150 mM NaCl, 5 mM MgCl2, 1.8 mM CaCl2), placed into 5-10 mL collagenase D, cut into 5-6 pieces and incubated at 37° C. for 45-60 min. Collagenase-digested spleens were then processed with glass slides and passed through a 70 μm nylon mesh cell strainer. After the strainer was flushed with 40 mL culture media, cells were centrifuged (8 min @ 200×G), suspended in 1 mL PBS and subjected to red blood cell lysis by incubating the cell suspension for 5 min at room temperature in 10 mL lysis buffer (155 mM NH4Cl, 10 mM KHCO3, 0.1 mM EDTA), followed by dilution in PBS to 50 mL and centrifugation (8 min @ 200×g). The splenocytes were then suspended in 10 mL MACS buffer (PBS pH 7.2, supplemented with 2 mM EDTA and 0.5% BSA), passed through a 40 μm nylon mesh cell strainer which was flushed with 40 mL MACS buffer. A preliminary cell count was taken at this time, prior to centrifugation (8 min @ 200×G). The splenocytes were suspended at a density of 10^8 cells per 400 μL MACS buffer. Paramagnetic MicroBeads coated with anti-CD11c antibody were mixed with the splenocyte suspension (100 μL per 10^8 cells), incubated at +4° C. for 15 min, washed, suspended in 1.0 mL MACS buffer and passed through a MS+separation column placed within a strong magnetic field. CD11c^+ cells were retained in the column whereas CD11c^− cells were washed off the column as the flow-through cell fraction. CD11c^+ cells were then collected by removing the column out of the magnetic field and flushing the column twice with 1 mL of MACS buffer. CD11c^+ cells were washed once with culture media and suspended at a density of 0.5×10^6 cells per mL in cytokine supplemented culture media {DMEM/F12 supplemented with 10% FCS and gentamicin containing mouse GM-CSF (1 ng/mL), mouse IL-4 (1 ng/mL), mouse IFNγ (3 ng/mL) and anti mouse CD40 (0.5 mg/mL)}.
Mouse IL12 release from CD11c^+ splenocytes was measured using ELISA. Briefly, CD11c+ cell culture supernatants were sampled following an overnight incubation (usually 15-18 hrs). Media samples (100 μL) were added to ELISA plates coated with anti mouse IL12 (p70) capture antibody (R&D #MAB419; 250 ng in 100 μL per well) and incubated either at 37° C. or room temperature for 2 hrs. The ELISA plates were washed extensively with wash buffer after which 100 μL per well of detection antibody/detection reagent (biotinylated anti-mouse IL12; R&D #BAF419 at 50 ng/mL and streptavidin-HRP) was added. The ELISA plates were again incubated for 2 hours, washed and exposed to […] substrate solution (Pierce #34021) for 20 min. The substrate reaction was stopped by adding 100 μL/well 2M H2SO4. ELISA plates were read at 450 nm (corrected at 540 nm) and mIL12(p70) levels were calculated using an intra-ELISA standard curve (range: 2000-31.25 pg/mL).

Molecule | DC/mIL12 Release [1] | NK-CMC Activity (Mouse sarcoma 180 cells) | other results
IFNγ: Interferon gamma | − |  | NK-inducing activity (Mouse sarcoma 180 cells): slight increase in NK-CMC; maximal response, cytotoxicity (Mouse sarcoma 180 cells): ^6Weakly activates NK cells in the presence of IL-2 (maximal response < 50% cytotoxicity).; Enhancement of NK-CMC compared to BEX (Mouse sarcoma 180 cells): relatively weak enhancers
IL-5: interleukin | − | − | 
IL-6: interleukin | − | − | 
TGFβ | − | − | 
TNFα | − |  | Enhancement of NK-CMC compared to BEX (Mouse sarcoma 180 cells): relatively weak enhancers
IL-10: interleukin (protein, UniProt P18893 19-178, looked up) Interleukin-10: SRGQYSREDNNCTHFPVGQSHMLLELRTAFSQVKTFFQTKDQLDNILLTDSLMQDFKGYLGCQALSEMIQFYLVEVMPQAEKHGPEIKEHLNSLGEKLKTLRMRLRRCHRFLPCENKSKAVEQVKSDFNKLQDQGVYKAMNEFDIFINCIEAYMMIKMKS | inhibitory | − | 
IL-1β: interleukin (protein, UniProt P10749 118-269, looked up) Interleukin-1 beta: VPIRQLHYRLRDEQQKSLVLSDPYELKALHLNGQNINQQVIFSMSFVQGEPSNDKIPVALGLKGKNLYLSCVMKDGTPTLQLESVDPKQYPKKKMEKRFVFNKIEVKSKVEFESAEFPNWYISTSQAEHKPVFLGNNSGQDIIDFTMESVSS | − | −^3 | 
IL-2: Interleukin 2 (protein, UniProt P04351 21-169, looked up) Interleukin-2: APTSSSTSSSTAEAQQQQQQQQQQQQHLEQLLMDLQELLSRMENYRNLKLPRMLTFKFYLPKQATELKDLQCLEDELGPLRHVLDLTQSKSFQLEDAENFISNIRVTVVKLKGSDNTFECQFDDESATVVDFLRRWIAFCQSIISTSPQ | − |  | Effect on NK-CMC (footnotes of Table 16) (Mouse sarcoma 180 cells): ^4IL-2 significantly increases NK-CMC only at high concentrations.; basal NK-CMC activity (Mouse sarcoma 180 cells; IL2 alone (125 U/ml), highest NK:S180 ratio (100_NK)): 10-15%
